Patent US5656256A (The University of North Carolina at Chapel Hill, priority 1994, dated 1997)

Key:
[1] = biological target: T1, airway epithelial Na+ channels (Homo sapiens, UniProt P37088+P51168+P51170); experiment: Short-circuit current (Isc) measurement of sodium transport in cultured human nasal epithelium, Ussing chamber; format: cell-based; conditions: for concentration achieving the same level of complete sodium channel blocking, less than amiloride: apical surface of human nasal epithelium, relative to amiloride
T1 construct: Cells from freshly excised specimens are protease isolated; endogenous in cells
T1 sequence (P37088 1-669): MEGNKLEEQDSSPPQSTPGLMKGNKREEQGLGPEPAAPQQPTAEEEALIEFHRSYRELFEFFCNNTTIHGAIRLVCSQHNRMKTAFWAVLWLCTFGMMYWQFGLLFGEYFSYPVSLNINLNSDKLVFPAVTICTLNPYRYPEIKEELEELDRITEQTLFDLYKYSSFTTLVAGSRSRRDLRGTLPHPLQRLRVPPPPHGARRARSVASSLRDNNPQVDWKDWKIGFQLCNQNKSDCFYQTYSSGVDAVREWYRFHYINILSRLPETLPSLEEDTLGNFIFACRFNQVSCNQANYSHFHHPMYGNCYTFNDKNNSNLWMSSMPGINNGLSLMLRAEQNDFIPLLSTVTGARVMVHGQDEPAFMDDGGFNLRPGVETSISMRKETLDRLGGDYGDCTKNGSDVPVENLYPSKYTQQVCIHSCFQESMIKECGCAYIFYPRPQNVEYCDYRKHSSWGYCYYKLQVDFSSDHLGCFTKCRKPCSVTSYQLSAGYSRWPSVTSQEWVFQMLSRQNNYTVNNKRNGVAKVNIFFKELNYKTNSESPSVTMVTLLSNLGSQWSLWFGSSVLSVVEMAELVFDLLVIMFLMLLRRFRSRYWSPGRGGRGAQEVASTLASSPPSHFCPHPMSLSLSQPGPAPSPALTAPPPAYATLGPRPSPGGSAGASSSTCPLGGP
T1 sequence (P51168 1-640): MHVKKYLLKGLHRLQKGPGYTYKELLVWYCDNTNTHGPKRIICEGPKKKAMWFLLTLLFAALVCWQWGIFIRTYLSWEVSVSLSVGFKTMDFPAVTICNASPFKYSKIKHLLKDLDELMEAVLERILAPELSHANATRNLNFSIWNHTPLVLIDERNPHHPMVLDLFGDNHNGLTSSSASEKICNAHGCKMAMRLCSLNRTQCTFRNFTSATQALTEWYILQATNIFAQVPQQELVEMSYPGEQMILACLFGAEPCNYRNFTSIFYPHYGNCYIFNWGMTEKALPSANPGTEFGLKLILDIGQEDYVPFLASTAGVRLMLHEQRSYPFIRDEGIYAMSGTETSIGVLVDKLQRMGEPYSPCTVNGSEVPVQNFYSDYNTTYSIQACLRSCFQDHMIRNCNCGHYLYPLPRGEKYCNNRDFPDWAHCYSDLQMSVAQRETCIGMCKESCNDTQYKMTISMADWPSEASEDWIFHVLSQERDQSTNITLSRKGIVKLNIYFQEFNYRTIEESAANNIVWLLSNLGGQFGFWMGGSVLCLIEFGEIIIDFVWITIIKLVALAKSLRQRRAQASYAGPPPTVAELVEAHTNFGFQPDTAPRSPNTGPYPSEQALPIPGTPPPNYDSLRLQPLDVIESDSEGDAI
T1 sequence (P51170 1-649): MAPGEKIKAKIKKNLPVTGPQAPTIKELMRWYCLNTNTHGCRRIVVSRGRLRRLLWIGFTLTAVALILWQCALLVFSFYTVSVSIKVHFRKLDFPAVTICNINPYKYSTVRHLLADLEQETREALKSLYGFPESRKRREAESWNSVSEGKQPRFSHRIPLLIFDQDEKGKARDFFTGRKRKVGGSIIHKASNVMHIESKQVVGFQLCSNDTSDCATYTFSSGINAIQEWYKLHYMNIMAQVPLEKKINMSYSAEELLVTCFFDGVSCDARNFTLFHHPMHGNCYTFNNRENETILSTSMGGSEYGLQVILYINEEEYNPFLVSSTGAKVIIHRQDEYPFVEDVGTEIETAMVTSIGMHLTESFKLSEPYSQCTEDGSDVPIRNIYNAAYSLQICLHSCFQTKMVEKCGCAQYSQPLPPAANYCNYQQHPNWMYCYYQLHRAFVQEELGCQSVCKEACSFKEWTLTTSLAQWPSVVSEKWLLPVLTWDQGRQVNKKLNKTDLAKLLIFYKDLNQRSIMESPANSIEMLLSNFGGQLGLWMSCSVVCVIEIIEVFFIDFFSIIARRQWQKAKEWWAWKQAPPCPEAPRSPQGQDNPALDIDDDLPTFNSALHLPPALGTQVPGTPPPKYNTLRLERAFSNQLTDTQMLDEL
Protocol: The cell culture procedures used in this example are performed as described in Willumsen, N. J., et al., Am. J. Physiol. 256:C1033-C1044 (Cell. Physiol. 25) (1989) and Yankaskas, J. R., et al., Am. Rev. Respir. Dis. 132:1281-1287 (1985). Cells from freshly excised specimens are protease isolated with protease XIV (Sigma, St, Louis, Mo.), concentrated,and plated on collagen membranes in the bottom of plastic-tissue culture cups. The cells are fed for 5 days with serum-free F-12 medium containing the following additives (F-12/7X): insulin, epidermal growth factor, cholera toxin, transferrin, hydrocortisone, triiodothyronine, and endothelial cell growth substance. Subsequently, they are fed with F-12/7X media supplemented (1:1) with 3T3 fibroblast-conditioned media containing 1% fetal bovine serum. After the fifth day in culture, the transepithelial potential difference (PD) developed by the culture is measured daily to detect the occurrence of confluency. Cell preparations are routinely studied within 1 day of the development of the maximal PD.
J. Physiol. (Cell Physiol. 25) 256:C1033-C1053 (1989).
The tissue preparation described in Example 1 is mounted in a modified (superfusion, not recirculating), miniature Ussing chamber interfaced to a voltage clamp that measures transepithelial PD and the PD response to constant current (I) pulses. The chamber contains 1 ml of bathing solution for each (apical; basolateral) surface of the preparation. The solution used as the vehicle for drug delivery is a Krebs bicarbonate Ringer solution (KBR) which approximates the ionic composition of plasma. This solution is warmed (37°) and gassed (95% oxygen, 5% CO2) to maintain pH 7.4. The cultured cells are superfused on both surfaces with KBR.
The measurement of sodium transport rates is performed by recording the spontaneous transepithelial PD (Vt) and responses of the PD to constant current pulses. From the relationship between Vt and induced Vt deflections, the transepithelial resistance (Rt) is calculated. The short-circuit current (Isc), or measure of sodium transport rate, is determined as Isc =Vt /Rt.
Each cultured human airway epithelial preparation is exposed to different concentrations (10^-8 M-10^-3 M) of a sodium-channel blocking drug on either the basolateral or apical surface for the dose response studies. To construct concentration-effect relationships of the response to the drugs, it was assumed that the same maximum response to a drug could be induced from each tissue culture preparation from the same individual.

[2] = biological target: T1, airway epithelial Na+ channels; experiment: Persistence of Na+ absorption blockade after washout of drug, Ussing chamber; format: cell-based; conditions: 10^-5 M for 5 minutes to the luminal surface, then KBR perfusion; time for Isc to return to basal
Text: In vivo, drug is delivered to the lungs as a single bolus. […] This Example illustrates the contribution of binding of drug to the target site (2) to the duration of drug action.
A protocol was designed to measure the duration of drug action after removal of drug from the airway surface liquid compartment. For this protocol, human airway epithelial preparations as described in Example 1 are mounted in modified Ussing chambers and interfaced to voltage clamps as described above in Example 2. Basal measurements of Isc in KBR are made and the steady state response to a 5 minute administration of a single maximal effective concentration (10^-5 M) of drug delivered to the luminal surface is measured. Following this step, administration of the drug is stopped, the lumen is perfused with standard KBR solutions, and the time required for Isc to return to baseline or basal levels is measured.

SMILES	potency as blocker of apical Na+ channels (in words) ([1]; steady-state inhibition of Na+ transport, human nasal epithelia)	concentration achieving the same level of complete sodium channel blocking, less than amiloride [1]	potency compared to amiloride (more potent by) [1]	duration of activity after washout compared to amiloride [2]
N=C(N)NC(=O)c1nc(Cl)c(N)nc1N [amiloride]	significantly less potent than benzamil or phenamil			
NC(=NCc1ccccc1)NC(=O)c1nc(Cl)c(N)nc1N [benzamil, 3,5-diamino-6-chloro-N-(benzylaminoaminomethylene)pyrazinecarboxamide]		approximately one	1-1.5 log-concentration units	almost twice as long as amiloride
NC(=Nc1ccccc1)NC(=O)c1nc(Cl)c(N)nc1N [phenamil, 3,5-diamino-6-chloro-N-(phenylaminoaminomethylene)pyrazinecarboxamide]		approximately one	1-1.5 log-concentration units	almost twice as long as amiloride
